Read-outs that look alike come from different tables or passages of the source. Each block holds one molecule with its values, some of them ahead of it.
What was measured:
[1] = test system: exsheathed third-stage larvae (xL3s) of H. contortus; assay: xL3 motility assay (whole-organism screen and dose-response); type: cell-based, Haemonchus contortus; settings: for activity at 20 µM: Haemonchus contortus, 72 h, percent of motility compared with controls, mean of triplicate ± SEM
Method: The selenophene and thiophene-core ligands (n = 74) (Additional file 1) were screened at a concentration of 20 μM on exsheathed third-stage larvae (xL3s) of H. contortus in 96-well microculture plates (cat. no. 3635; Corning 3650, Life Sciences, Corning, USA) using relevant control compounds (i.e. moxidectin and monepantel), as described previously. In brief, compounds were dissolved to a stock concentration of 10 mM in either dimethyl sulfoxide (DMSO) or methanol (Sigma-Adrich Scientific, St. Louis, USA). These ligands were then individually diluted to the final concentration of 20 μM using Luria Bertani medium (LB) supplemented with 100 IU/ml of penicillin, 100 μg/ml of streptomycin and 2.5 μg/ml of amphotericin (LB*). Compounds were dispensed (in triplicate) into the wells of a 96-well microculture plate using a multichannel pipette. In addition, the negative controls (LB*, LB* + 0.5 % solvent; six wells each), and positive controls (20 μM of monepantel; Zolvix, Novartis Animal Health, Basel, Switzerland and 20 μM of moxidectin; Cydectin, Virbac, Carros, France; triplicate wells) and xL3s (~300/well) were dispensed into wells of the plate using an automated multichannel pipette (Viaflo Assist/II, Integra Biosciences, Zizers, Switzerland). […], a video recording (5 s) was taken of each well of the 96-well microculture plate (containing xL3s) using a greyscale camera (Rolera Bolt CMOS, Qimaging Scientific, Surrey, Canada) and a motorised X-Y axis stage (BioPoint 2, Ludl Electronics Products, Hawthorne, USA). Individual videos were processed to calculate a motility index (MI) using an algorithm described previously. MIs were normalised to the negative and positive controls (to remove plate-to-plate variation) using the program Prism (v.6 GraphPad Software, USA). Z’-scores were calculated to validate the performance of the screening assay; reliable assays achieve Z’-scores of between 0.5 and 1 [28]. A compound was recorded as having an activity if it reduced xL3 motility by ≥ 70 % following incubation for 72 h. […] Compounds that reduced the motility of xL3s were also tested for their ability to inhibit the motility of L4s (same protocol as for xL3s) and/or to affect the development of xL3s to L4s. Following the measurement of L4 motility, larvae were re-incubated for 4 more days and fixed with 1 % iodine (50 μl). Then, L4 development was assessed based on the presence of a well-developed mouth/pharynx using a light microscope and expressed as a percentage of the total number of larvae examined (n = 30).
All assays (to assess xL3 motility, L4 development and L4 motility) were performed in triplicate, three times, on separate days.

[2] = 20 μM, read-out: xL3 Motility Index(%)
[3] = read-out: xL3 Motility Index(%), 20 μM, 72 h

- melting point: 121 to 125 °C
SMILES: COc1ccc(-c2cscc2-c2ccc(OC)cc2Cl)c(Cl)c1 [MJ-4]
- activity on xL3 motility, in words ([1]; 20 μM): Poor activity
- activity at 20 µM [1, 2]: 81.6 ± 15.7%

SMILES: Oc1ccc(-c2ccc(-c3ccc(O)cc3Cl)s2)c(Cl)c1 [MJ-29]
- activity at 20 µM [1, 2]: 66.6 ± 2.7%

SMILES: Oc1ccc(-c2ccsc2-c2ccc(O)cc2Cl)c(Cl)c1 [MJ-32]
- activity on xL3 motility, in words ([1]; 20 μM): lost all activity
- activity at 20 µM [1, 2]: 102 ± 3.6%

SMILES: Cc1cc(-c2cscc2-c2ccc(O)c(C)c2)ccc1O [MJ-33]
- activity on xL3 motility, in words ([1]; 20 μM): poor activity
- activity at 20 µM [1, 2]: 85.5 ± 10.6%

SMILES: Oc1ccc(-c2cscc2-c2ccc(O)cc2)cc1 [MJ-35]
- activity on xL3 motility, in words ([1]; 20 μM): complete loss of activity
- activity at 20 µM [1, 2]: 102 ± 1.5%

SMILES: COc1ccc(-c2ccc(-c3ccc(OC)cc3Cl)[se]2)c(Cl)c1 [WZY-1]
- activity on xL3 motility, in words ([1]; 20 μM): limited reduction in motility
- activity at 20 µM [1, 3]: 77.9 ± 6.6%

SMILES: Oc1ccc(-c2ccc(-c3ccc(O)cc3F)[se]2)c(F)c1 [WZY-3]
- activity at 20 µM [1, 3]: 100 ± 7.7%

SMILES: Oc1ccc(-c2cc(Br)c(-c3ccc(O)c(Cl)c3)[se]2)cc1Cl [WZY-4]
- activity on xL3 motility, in words ([1]; 20 μM): “lost” activity
- activity at 20 µM [1, 3]: 123 ± 7.8%

SMILES: COc1c(C)cc(-c2cc(Br)c(-c3cc(C)c(OC)c(C)c3)[se]2)cc1C [WZY-5]
- activity on xL3 motility, in words ([1]; 20 μM): “lost” activity
- activity at 20 µM [1, 3]: 105 ± 18.6%
